Source: patent US20230279025A1, “KRAS G12D INHIBITORS” (Mirati Therapeutics, Inc., priority 2020, published 2023)

Key:
KRas G12D [1] = biological target: T1, KRas G12D (Homo sapiens (Human), UniProt P01116, G12D); assay: KRas G12D Surface Plasmon Resonance (SPR) Binding Assay; conditions: Biacore T200, immobilized biotinylated KRAS protein, 1:1 binding model
Target sequence in this assay (P01116-2 other isoform, or with tags, fused parts or gaps G12D): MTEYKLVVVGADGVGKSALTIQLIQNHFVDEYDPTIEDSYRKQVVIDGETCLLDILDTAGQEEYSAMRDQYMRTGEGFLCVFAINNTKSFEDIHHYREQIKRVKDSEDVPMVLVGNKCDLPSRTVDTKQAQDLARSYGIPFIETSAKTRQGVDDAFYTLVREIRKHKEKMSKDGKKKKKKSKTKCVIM

KRas G12D [2] = biological target: T1, KRas G12D; assay: KRas G12D Binding Assay (TR-FRET displacement of Cy5 labelled tracer); conditions: GDP-loaded KRAS G12D (amino acids 1:169), 60 minute incubation at 22° C.
Method: After a 60 minute incubation at 22° C., the reaction was measured using a PerkinElmer EnVision multimode plate reader via TR-FRET dual wavelength detection, and the percent of control (POC) calculated using a ratiometric emission factor. […] The POC values were fit to a 4-parameter logistic curve and the IC50 value was determined as the concentration where the curve crosses 50 POC.
ND stands for “not determined.”
Target sequence in this assay (P01116 other isoform, or with tags, fused parts or gaps G12D): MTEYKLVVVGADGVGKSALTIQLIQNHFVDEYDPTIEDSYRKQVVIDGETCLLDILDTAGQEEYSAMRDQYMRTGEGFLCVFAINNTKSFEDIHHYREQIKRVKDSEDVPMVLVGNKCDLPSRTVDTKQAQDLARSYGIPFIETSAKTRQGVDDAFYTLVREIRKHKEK

Row | Structure (SMILES) | Kd (KRas G12D [1]) [nM] | IC50 (KRas G12D [2]) [nM]
1 | CC(C)n1ccnc1CCOc1nc(N2C[C@H]3CC[C@@H](C2)N3)c2cnc(-c3cc(O)cc4ccccc34)c(F)c2n1 [Example 91, 4-(4-((1R,5S)-3,8-diazabicyclo[3.2.1]octan-3-yl)-8-fluoro-2-(2-(1-isopropyl-1H-imidazol-2-yl)ethoxy)pyrido[4,3-d]pyrimidin-7-yl)naphthalen-2-ol] | 25.9 | 32.7
2 | Fc1c(-c2cccc3cccc(Cl)c23)ncc2c(N3C[C@H]4CC[C@@H](C3)N4)nc(OCCc3cn4ccccc4n3)nc12 [Example 92, 4-((1R,5S)-3,8-diazabicyclo[3.2.1]octan-3-yl)-7-(8-chloronaphthalen-1-yl)-8-fluoro-2-(2-(imidazo[1,2-a]pyridin-2-yl)ethoxy)pyrido[4,3-d]pyrimidine] | 2300 | 1350
3 | Cn1ccnc1CCOc1nc(N2C[C@H]3CC[C@@H](C2)N3)c2cnc(-c3cccc4ccccc34)c(F)c2n1 [Example 94, 4-((1R,5S)-3,8-diazabicyclo[3.2.1]octan-3-yl)-8-fluoro-2-(2-(1-methyl-1H-imidazol-2-yl)ethoxy)-7-(naphthalen-1-yl)pyrido[4,3-d]pyrimidine] | 7460 | 3650
4 | Cn1cncc1COc1nc(N2C[C@H]3CC[C@@H](C2)N3)c2cnc(-c3cc(O)cc4ccccc34)c(F)c2n1 [Example 95, 4-(4-((1R,5S)-3,8-diazabicyclo[3.2.1]octan-3-yl)-8-fluoro-2-((1-methyl-1H-imidazol-5-yl)methoxy)pyrido[4,3-d]pyrimidin-7-yl)naphthalen-2-ol] | 1130 | 561
5 | Oc1cc(-c2ncc3c(N4C[C@H]5CC[C@@H](C4)N5)nc(OCCc4ccccc4)nc3c2F)c2ccccc2c1 [Example 96, 4-(4-((1R,5S)-3,8-diazabicyclo[3.2.1]octan-3-yl)-8-fluoro-2-phenethoxypyrido[4,3-d]pyrimidin-7-yl)naphthalen-2-ol] | 710 | 2220
6 | Fc1c(-c2cccc3cccc(Cl)c23)ncc2c(N3C[C@H]4CC[C@@H](C3)N4)nc(OC[C@@H]3CCCN3Cc3ccccc3)nc12 [Example 97, 2-(((S)-1-benzylpyrrolidin-2-yl)methoxy)-4-((1R,5S)-3,8-diazabicyclo[3.2.1]octan-3-yl)-7-(8-chloronaphthalen-1-yl)-8-fluoropyrido[4,3-d]pyrimidine] | 5920 | 934
7 | Oc1cc(-c2ncc3c(N4C[C@H]5CC[C@@H](C4)N5)nc(OCc4cccnc4)nc3c2F)c2ccccc2c1 [Example 99, 4-(4-((1R,5S)-3,8-diazabicyclo[3.2.1]octan-3-yl)-8-fluoro-2-(pyridin-3-ylmethoxy)pyrido[4,3-d]pyrimidin-7-yl)naphthalen-2-ol] | 897 | 624
8 | Cc1cccc2cccc(-c3ncc4c(N5C[C@H]6CC[C@@H](C5)N6)nc(OCCc5nccn5C)nc4c3F)c12 [Example 100, 4-((1R,5S)-3,8-diazabicyclo[3.2.1]octan-3-yl)-8-fluoro-2-(2-(1-methyl-1H-imidazol-2-yl)ethoxy)-7-(8-methylnaphthalen-1-yl)pyrido[4,3-d]pyrimidine] | 1090 | 1950
9 | Cc1cccc2cccc(-c3ncc4c(N5C[C@H]6CC[C@@H](C5)N6)nc(OCCc5cccnc5)nc4c3F)c12 [Example 101, 4-((1R,5S)-3,8-diazabicyclo[3.2.1]octan-3-yl)-8-fluoro-7-(8-methylnaphthalen-1-yl)-2-(2-(pyridin-3-yl)ethoxy)pyrido[4,3-d]pyrimidine] | 12000 | 8080
10 | Oc1cc(-c2ncc3c(N4C[C@H]5CC[C@@H](C4)N5)nc(OCCc4ccc(F)cn4)nc3c2F)c2ccccc2c1 [Example 102, 4-(4-((1R,5S)-3,8-diazabicyclo[3.2.1]octan-3-yl)-8-fluoro-2-(2-(5-fluoropyridin-2-yl)ethoxy)pyrido[4,3-d]pyrimidin-7-yl)naphthalen-2-ol] | 259 | 95.8
11 | Cn1ccnc1COc1nc(N2C[C@H]3CC[C@@H](C2)N3)c2cnc(-c3cc(O)cc4ccccc34)c(F)c2n1 [Example 104, 4-(4-((1R,5S)-3,8-diazabicyclo[3.2.1]octan-3-yl)-8-fluoro-2-((1-methyl-1H-imidazol-2-yl)methoxy)pyrido[4,3-d]pyrimidin-7-yl)naphthalen-2-ol] | 362 | 1680
12 | COc1nc(N2C[C@H]3CC[C@@H](C2)N3)c2cnc(-c3cc(O)cc4ccccc34)c(F)c2n1 [Example 105, 4-(4-((I R,5S)-3,8-diazabicyclo[3.2.1]octan-3-yl)-8-fluoro-2-methoxypyrido[4,3-d]pyrimidin-7-yl)naphthalen-2-ol] | 2260 | 867
13 | Oc1cc(-c2ncc3c(N4C[C@H]5CC[C@@H](C4)N5)nc(OCCc4cccnc4)nc3c2F)c2ccccc2c1 [Example 106, 4-(4-((1R,5S)-3,8-diazabicyclo[3.2.1]octan-3-yl)-8-fluoro-2-(2-(pyridin-3-yl)ethoxy)pyrido[4,3-d]pyrimidin-7-yl)naphthalen-2-ol] | 53.5 | 156
14 | CN(C)CCOc1nc(N2C[C@H]3CC[C@@H](C2)N3)c2cnc(-c3cccc4cccc(Cl)c34)c(F)c2n1 [Example 107, 2-((4-((I R,5S)-3,8-diazabicyclo[3.2.1]octan-3-yl)-7-(8-chloronaphthalen-1-yl)-8-fluoropyrido[4,3-d]pyrimidin-2-yl)oxy)-N,N-dimethylethan-1-amine] | 1440 | 2120
15 | Fc1c(-c2cccc3ccccc23)ncc2c(N3C[C@H]4CC[C@@H](C3)N4)nc(OC[C@@H]3CCCN3Cc3ccccc3)nc12 [Example 108, 2-(((S)-1-benzylpyrrolidin-2-yl)methoxy)-4-((1R,5S)-3,8-diazabicyclo[3.2.1]octan-3-yl)-8-fluoro-7-(naphthalen-1-yl)pyrido[4,3-d]pyrimidine] | 63500 | 4840
16 | Oc1cc(-c2ncc3c(N4C[C@H]5CC[C@@H](C4)N5)nc(OCC45CCCN4CCC5)nc3c2F)c2ccccc2c1 [Example 109, 4-(4-((1R,5S)-3,8-diazabicyclo[3.2.1]octan-3-yl)-8-fluoro-2-((tetrahydro-1H-pyrrolizin-7a(5H)-yl)methoxy)pyrido[4,3-d]pyrimidin-7-yl)naphthalen-2-ol bis(2,2,2-trifluoroacetate)] | > 500000 | 0.5
17 | Cn1cncc1CCOc1nc(N2C[C@H]3CC[C@@H](C2)N3)c2cnc(-c3cc(O)cc4ccccc34)c(F)c2n1 [Example 110, 4-(4-((1R,5S)-3,8-diazabicyclo[3.2.1]octan-3-yl)-8-fluoro-2-(2-(1-methyl-1H-imidazol-5-yl)ethoxy)pyrido[4,3-d]pyrimidin-7-yl)naphthalen-2-ol] | 42.3 | 57.5
18 | Cn1ccnc1CCNc1nc(N2C[C@H]3CC[C@@H](C2)N3)c2cnc(-c3cc(O)cc4ccccc34)c(F)c2n1 [Example 111, 4-(4-((1R,5S)-3,8-diazabicyclo[3.2.1]octan-3-yl)-8-fluoro-2-((2-(1-methyl-1H-imidazol-2-yl)ethyl)amino)pyrido[4,3-d]pyrimidin-7-yl)naphthalen-2-ol] | 276 | 281
19 | Cn1ccnc1CCOc1nc(N2C[C@H]3CC[C@@H](C2)N3)c2cnc(-c3cccc4ccc(F)cc34)c(F)c2n1 [Example 112, 4-((1R,5S)-3,8-diazabicyclo[3.2.1]octan-3-yl)-8-fluoro-7-(7-fluoronaphthalen-1-yl)-2-(2-(1-methyl-1H-imidazol-2-yl)ethoxy)pyrido[4,3-d]pyrimidine] | 983 | 718
